Patent US7670591B2, “Heteroaryl substituted benzoxazoles” (AstraZeneca AB, priority 2006, dated 2010)
Where two headings read alike, the source gives them in different places.

Assays:
[1] = biological target: T1, synthetic Aβ 1-40 (Homo sapiens, UniProt P05067); assay: Competition binding assay ([3H]PIB as radioligand)
T1 construct: using synthetic Aβ 1-40 in 2.7 nM of
Procedure: Competition binding was performed in 384-well FB filter plates using synthetic Aβ 1-40 in 2.7 nM of [^3H]PIB (or another ^3H-labeled radioligand when so mentioned) in phosphate buffer at pH 7.5, by adding various concentrations of non-radioactive compounds originally dissolved in DMSO. The binding mixture was incubated for 30 min at room temperature, followed by vacuum filtration, and subsequentially by washing twice with 1% Triton-X100. Scintillation fluid was thereafter added to the collected Aβ 1-40 on the filter plate, and the activity of the bound remaining radioligand ([^3H]PIB or another ^3H-labeled radioligand) was measured using 1450 Microbeta from PerkinElmer (FIG. 1). Specific binding was determined according to the competion binding assay described herein. The determined IC50's in the competion binding assays (using [^3H]PIB as radioligand) of 5 compounds of the present invention are shown in Table 2.

[2] = biological target: T2, human synthetic Aβ 1-40 fibrils (Homo sapiens, UniProt P05067); assay: Saturation binding experiments; settings: amyloid Aβ 1-40 fibrils in vitro, AVG; for Kd: two site binding
T2 construct: human synthetic Aβ 1-40 fibrils
Procedure: Saturation binding experiments were performed in 96-well polypropylene deep well plates. 2 μM human synthetic Aβ 1-40 fibrils in phosphate buffer pH 7.5, or buffer alone as control, were incubated with increasing concentration of a ^3H-labeled radioligand of the present invention for 1 hr at room temperature. The radioactivity still bound to the Aβ 1-40 fibrils at the end of the incubation was detected on FB filters after filtration in a Brandel apparatus using a wash buffer containing 0.1% Triton-X100. Results were corrected for nonspecific, nondisplaceable binding defined as the number of counts from wells without Aβ 1-40 fibrils (replaced with assay buffer).

[3] = cited from earlier work
[4] = [3H]PIB as radioligand, Table 2

T2 sequence (P05067 672-711 limits assumed): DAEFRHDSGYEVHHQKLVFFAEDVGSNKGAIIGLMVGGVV
T1 sequence (P05067 672-711 limits assumed): as above

For `COc1ccc2nc(-c3ccc(N(C)C)nc3)oc2c1` [Example 1, 5-(6-Methoxy-1,3-benzoxazol-2-yl)-N,N-dimethylpyridin-2-amine], the IC50 [1, 4] was 204 nM.

Work on `CN(C)c1ccc(-c2nc3ccc(O)cc3o2)cn1` [Example 2, 2-[6-(Dimethylamino)pyridin-3-yl]-1,3-benzoxazol-6-ol] yielded an IC50 [1, 4] of 85 nM.

`CNc1ccc(-c2nc3ccc(OC)cc3o2)cn1` [Example 3, 5-(6-Methoxy-1,3-benzoxazol-2-yl)-N-methylpyridin-2-amine] gave an IC50 [1, 4] of 186 nM.

In the case of `COc1ccc2nc(-c3ccc(N(C)C(C)=O)nc3)oc2c1` [Example 4, N-[5-(6-Methoxy-1,3-benzoxazol-2-yl)pyridin-2-yl]-N-methylacetamide], the IC50 [1, 4] is reported as 15700 nM.

With `CNc1ccc(-c2nc3ccc(O)cc3o2)cn1` [Example 5, 2-[6-(Methylamino)pyridin-3-yl]-1,3-benzoxazol-6-ol] the “Bmax 1” value ([2]; site 1) was 0.9099 pmol/nmol Ab, the “Bmax 2” value ([2]; site 2) was 4.298 pmol/nmol Ab and the Kd ([2]; site 1, read-out: Kd 1) was 5.33 nM. It also gave a Kd ([2]; site 2, read-out: Kd 2) of 63.3 nM, an IC50 [1, 4] of 182 nM and an IC50 ([1]; amyloid Aβ 1-40 fibrils in vitro, AVG) of 182 nM.

For `CN(C)c1ccc(-c2nc3ccc(I)cc3o2)cc1` [IBOX], the brain entrance ([3]; compared with TZDM) is listed as “relatively higher brain entrance” and the “clearance from normal brain tissue” value ([3]; compared with related analogues) is listed as “relatively more rapid clearance from normal brain tissue”.
